# Measurements: PMC7918738, “Microtubule Destabilizing Sulfonamides as an Alternative to Taxane-Based Chemotherapy” (International Journal of Molecular Sciences, 2021)
# Assays:
# [1] = system: SKOV3 ovarian carcinoma cells; design: method as in PMID 29291446; details: read-out: Antiproliferative IC50 SKOV3; cited from earlier work
# [2] = system: microtubule network of MCF7, SKOV3, and HeLa cells; test: Immunofluorescence confocal microscopy of the microtubule network; format: cell-based, human; details: 72 h, 38 600 nM, 45 400 nM
# Procedure: The effect of MDS 38 and 45 on the tubulin cytoskeleton was analyzed in MCF7, SKOV3, and HeLa cells after 72-h treatments. The microtubule network was visualized by confocal microscopy staining α-tubulin in green, and cell nuclei were stained in blue with DAPI (4’,6-diamidino-2-phenylindole) (Figure 4).
# MCF7, SKOV-3, and HeLa cells were grown on glass coverslips coated with poly-L-lysine (12 mm diameter). To reach appropriate cell confluence, coverslips were manipulated in 6-well plates (3 coverslips/well) seeding 3 mL/well of cells in the exponential growth phase at 2 × 10^4 cells/mL. After 24 h incubation, cells were treated with selected compounds and incubated for 72 h. Cells were washed with PBS, fixed with 4% formaldehyde in PBS for 10 min, permeabilized with 0.5% Triton X-100 (Boehringer Mannheim, Ingelheim am Rhein, Germany) in PBS for 10 min and blocked with 10% BSA in PBS for 30 min. Microtubule detection was performed by incubation with anti-α-tubulin mouse monoclonal antibody (1:200 in 3% BSA/PBS) (Sigma-Aldrich) for 1.5 h. After PBS washing, coverslips were incubated with fluorescent secondary antibody Alexa Fluor 488 goat anti-mouse IgG (1:400 in 1% BSA/PBS) (Molecular Probes, Invitrogen, Thermo Fischer Scientific) for 1 h in darkness. […] Cells were analyzed by confocal microscopy using a LEICA SP5 microscope DMI-6000V model coupled to a LEICA LAS AF software computer.
SMILES,IC50 [1],Effect on the microtubule network (α-tubulin immunofluorescence) [2]
"COc1ccc(/C=C\c2cc(OC)c(OC)c(OC)c2)cc1O [Combretastatin A-4, reference compound]",380 nM,
CNc1ccc(S(=O)(=O)N(C)c2cc(OC)c(OC)c(OC)c2)cc1 [Compound 38],,disrupted the microtubule system
COc1ccc(S(=O)(=O)N(Cc2ccccc2)c2cc(OC)c(OC)c(OC)c2)cc1N [Compound 45],,disrupted the microtubule system
